Assay results: patent publication US20230346770A1 (priority 2020, published 2023)
Converted amounts (≈) assume the structure as drawn. Like-named read-outs stand apart in the source and are kept apart here.

How the values were obtained:
[1] = Phase 1 crossover drug-drug interaction study, plasma pharmacokinetics in healthy adults; conditions: for time of peak of mean plasma concentration / pre-dose mean plasma concentration: Treatment B; for time of peak of mean plasma concentration: Day 5, in combination with bedaquiline; for pre-dose mean plasma concentration: Day 5 morning
[2] = test system: M. avium/M. intracellulare (MAC); conditions: n=7; cited from earlier work
[3] = test system: M. smegmatis; conditions: n=7; cited from earlier work
[4] = clinical; conditions: human, in vivo
[5] = test system: M. abscessus; conditions: cited from earlier work
[6] = test system: M. kansasii; conditions: n=1; cited from earlier work
[7] = test system: M. marinum; conditions: n=1; cited from earlier work
[8] = test system: M. bovis; conditions: n=1; cited from earlier work
[9] = human; cited from earlier work
[10] = human, in vivo
[11] = in vivo; cited from earlier work
[12] = test system: M. ulcerans; conditions: cited from earlier work
[13] = test system: M. fortuitum; conditions: n=5; cited from earlier work
[14] = in vivo; cited from earlier work; remark: listed apart in the source
[15] = updated model from the present study; clarithromycin coadministration
[16] = test system: other mycobacterial species; conditions: generally, other mycobacterial species incl. M. avium, M. abscessus, M. fortuitum, M. marinum; cited from earlier work
[17] = 8-week bedaquiline regimen in MDR-TB patients, Diacon et al. 2012; cited from earlier work
[18] = Treatment B Day 5: bedaquiline 100 mg + clarithromycin 500 mg every 12 hours, n=16

CO[C@]1(C)C[C@@H](C)C(=O)[C@H](C)[C@@H](O)[C@](C)(O)[C@@H](C(C)O)OC(=O)[C@H](C)[C@@H](O[C@H]2C[C@@](C)(OC)[C@@H](O)[C@H](C)O2)[C@H](C)[C@H]1O[C@@H]1O[C@H](C)C[C@H](N(C)C)[C@H]1O (stereo partly drawn) [14-OH-Clarithromycin, 14-OH-clarithromycin]
AUC12 h (mean) [1, 18]: 10849 ng·h/mL
Cmax (mean) [1, 18]: 1,152 ng/mL
Cmin (mean) [1, 18]: 636 ng/mL
tmax (median) [1, 18]: 2.00 h
time of peak of mean plasma concentration [1]: 3 hours post-dose
pre-dose mean plasma concentration [1]: 797 ng/mL

COc1nc2ccc(Br)cc2cc1[C@@H](c1ccccc1)[C@@](O)(CCN(C)C)c1cccc2ccccc12 [Bedaquiline, (1R,2S)-1-(6-bromo-2-methoxyquinolin-3-yl)-4-(dimethylamino)-2-naphthalen-1-yl-1-phenylbutan-2-ol]
Bedaquiline MIC Median [2]: 10 ng/mL
Bedaquiline MIC range [2]: 7 to 10 ng/mL
Bedaquiline MIC Median [3]: 7 ng/mL
Bedaquiline MIC range [3]: 3 to 100 ng/mL
Cmax ([4]; 100 mg, Cmax (mean)): 1390 ng/mL
AUC(0-t) ([4]; AUC72 h (mean)): 13900 ng·h/mL
AUC(0-t) ([4]; AUC240 h (mean)): 17600 ng·h/mL
Tmax ([4]; tmax (median)): 5 h
MIC ([5]; 1 isolate of M. abscessus): 250 ng/mL (≈ 0.45 µM)
Bedaquiline MIC Median ([5]; n=1): 250 ng/mL
Bedaquiline MIC Median [6]: 3 ng/mL
Bedaquiline MIC Median [7]: 3 ng/mL
Bedaquiline MIC Median [8]: 3 ng/mL
Increase in CL for healthy volunteers or C202, Estimate [9]: 37.5%
AUC72h higher in Period 2 compared with Period 1 [10]: 5-6%
AUC240h higher in Period 2 compared with Period 1 [10]: 8-18%
increase of AUC72h with clarithromycin co-administration [10]: 12%
increase of AUC240h (mean plasma exposure) with clarithromycin co-administration [10]: 14%
plasma concentration quantifiable until [10]: 240 hours post-dose
tmax (median) [10]: 3.48 h
Cmax (mean) ([10]; 100 mg): 1287 ng/mL
terminal elimination half-life [11]: 5.5 months
time within which Cmax was reached after drug administration [11]: 4 to 6 h
MIC ([12]; 1 isolate of M ulcerans): 500 ng/mL (≈ 0.9 µM)
Bedaquiline MIC Median ([12]; n=1): 500 ng/mL
Bedaquiline MIC Median [13]: 10 ng/mL
Bedaquiline MIC range [13]: 7 to 10 ng/mL
improvement of bioavailability when administered with food [14]: approximately 2 fold
Effect CLR on CL/F, Estimate (RSE, %) [15]: −0.37 (11)
MICs [16]: < 0.1 µg/mL

CC[C@H]1OC(=O)[C@H](C)[C@@H](O[C@H]2C[C@@](C)(OC)[C@@H](O)[C@H](C)O2)[C@H](C)[C@@H](O[C@@H]2O[C@H](C)C[C@H](N(C)C)[C@H]2O)[C@](C)(OC)C[C@@H](C)C(=O)[C@H](C)[C@@H](O)[C@]1(C)O [Clarithromycin, clarithromycin, reference compound]
time of peak of mean plasma concentration [1]: 3 hours post-dose
pre-dose mean plasma concentration [1]: 1,281 ng/mL
AUC(0-t) ([1]; human, plasma, oral, AUC12 h (mean), Treatment B Day 5: bedaquiline 100 mg + clarithromycin 500 mg every 12 hours, n=16): 22900 ng·h/mL
Cmax ([1]; human, plasma, oral, Cmax (mean), Treatment B Day 5: bedaquiline 100 mg + clarithromycin 500 mg every 12 hours, n=16): 2970 ng/mL
Tmax ([1]; human, plasma, oral, tmax (median), Treatment B Day 5: bedaquiline 100 mg + clarithromycin 500 mg every 12 hours, n=16): 3 h

CNCC[C@@](O)(c1cccc2ccccc12)[C@H](c1ccccc1)c1cc2cc(Br)ccc2nc1OC [M2]
mean terminal elimination half-life [17]: 159 days
